Assay results published in patent publication US9834550B2, “Pyridopyrimidinone compounds for modulating the catalytic activity of histone lysine demethylases (KDMs)” (Dong-A Socio Holdings Co., Ltd., priority 2014, dated 2017).

How the values were obtained:
[1] = target: T1, Recombinant human JARID1B/KDM5B (Homo sapiens, UniProt Q9UGL1); test: LANCE Ultra TR-FRET demethylase assay with FLAG-tagged JARID1B; format: biochemical; details: 100 nM compound; 500 nM biotinylated H3K4me3 peptide substrate
T1 construct: purchased Active Motif 31432; host or cells: Sf9 insect cells
How it was run: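 Sf9-expressed N-FLAG full-length JARID1B (10–30 nM) preincubated 5 min with compound at 20, 1 or 0.1 uM (1% DMSO), then 500 nM biotin-H3K4me3 peptide, 500 uM 2-OG, 25 uM Fe(II), 2 mM ascorbate added; 30 min at room temperature in Hepes pH 7.5. H3K4me2/1 product read by TR-FRET 665/590 ratio.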

[2] = test system: MDA-MB-231 cell migration; test: Wound healing assay; format: cell-based; details: 24 h treatment; compared to DMSO; FIG. 1
Description: Breast cancer cells (MDA-MD-231) were seeded into 12-well plates (2500 cells/well), at bottom of which culture-inserts were implemented. The cells were cultured to subconfluence in RPMI1640 medium supplemented with 0.5% FBS and 100 μg/ml penicillin/streptomycin, and then starved in serum-free media for one day at 37° C. and 5% CO2. The inserts were removed to generate two cell patches separated each other by 0.9 mm of ‘wound fields’. Cultures were then treated with test compounds for 24 h. The results of wound healing assays at indicated time were photographed under microscopy with ×40 magnification after generating the wound fields. […] Similar results were obtained in three independent samples. The cancer cells were stained with 0.1% crystal violet at 24-hours time points.

[3] = test system: MDA-MB-231 breast cancer cells; test: Cell invasion assay (transwell, BME); format: cell-based; details: 10 μM; 24-h incubation; FIG. 2
Description: The ability of MDA-MB-231 breast cancer cells to invade into the basement membrane through a layer of BME (Basement Membrane Extract) was determined by using transwell inserts in a 24-well plate. The pore size of membrane was […]. The basement membrane was reconstituted by loading cold BME on top of the polycarbonate filter of the inserts of the transwell plate. After gelation of Matrigel at 37° C., MDA-MB-231 cells were plated into the inserts (1×10^5 cells/0.3 ml/well), and complete media were added to the lower wells (0.5 ml/well). To analyze the effect of 10 μM of compounds No. 87, 167, isonicotinic acid r or SAHA, was present in the cell suspensions. After a 24-h incubation, the noninvasive cells were remained within the inserts while cells that traversed through the BME and the polycarbonate filter were attached to the lower surface of the filter. The penetrated cells were then stained with 0.1% crystal violet.

T1 sequence (Q9UGL1 whole entry): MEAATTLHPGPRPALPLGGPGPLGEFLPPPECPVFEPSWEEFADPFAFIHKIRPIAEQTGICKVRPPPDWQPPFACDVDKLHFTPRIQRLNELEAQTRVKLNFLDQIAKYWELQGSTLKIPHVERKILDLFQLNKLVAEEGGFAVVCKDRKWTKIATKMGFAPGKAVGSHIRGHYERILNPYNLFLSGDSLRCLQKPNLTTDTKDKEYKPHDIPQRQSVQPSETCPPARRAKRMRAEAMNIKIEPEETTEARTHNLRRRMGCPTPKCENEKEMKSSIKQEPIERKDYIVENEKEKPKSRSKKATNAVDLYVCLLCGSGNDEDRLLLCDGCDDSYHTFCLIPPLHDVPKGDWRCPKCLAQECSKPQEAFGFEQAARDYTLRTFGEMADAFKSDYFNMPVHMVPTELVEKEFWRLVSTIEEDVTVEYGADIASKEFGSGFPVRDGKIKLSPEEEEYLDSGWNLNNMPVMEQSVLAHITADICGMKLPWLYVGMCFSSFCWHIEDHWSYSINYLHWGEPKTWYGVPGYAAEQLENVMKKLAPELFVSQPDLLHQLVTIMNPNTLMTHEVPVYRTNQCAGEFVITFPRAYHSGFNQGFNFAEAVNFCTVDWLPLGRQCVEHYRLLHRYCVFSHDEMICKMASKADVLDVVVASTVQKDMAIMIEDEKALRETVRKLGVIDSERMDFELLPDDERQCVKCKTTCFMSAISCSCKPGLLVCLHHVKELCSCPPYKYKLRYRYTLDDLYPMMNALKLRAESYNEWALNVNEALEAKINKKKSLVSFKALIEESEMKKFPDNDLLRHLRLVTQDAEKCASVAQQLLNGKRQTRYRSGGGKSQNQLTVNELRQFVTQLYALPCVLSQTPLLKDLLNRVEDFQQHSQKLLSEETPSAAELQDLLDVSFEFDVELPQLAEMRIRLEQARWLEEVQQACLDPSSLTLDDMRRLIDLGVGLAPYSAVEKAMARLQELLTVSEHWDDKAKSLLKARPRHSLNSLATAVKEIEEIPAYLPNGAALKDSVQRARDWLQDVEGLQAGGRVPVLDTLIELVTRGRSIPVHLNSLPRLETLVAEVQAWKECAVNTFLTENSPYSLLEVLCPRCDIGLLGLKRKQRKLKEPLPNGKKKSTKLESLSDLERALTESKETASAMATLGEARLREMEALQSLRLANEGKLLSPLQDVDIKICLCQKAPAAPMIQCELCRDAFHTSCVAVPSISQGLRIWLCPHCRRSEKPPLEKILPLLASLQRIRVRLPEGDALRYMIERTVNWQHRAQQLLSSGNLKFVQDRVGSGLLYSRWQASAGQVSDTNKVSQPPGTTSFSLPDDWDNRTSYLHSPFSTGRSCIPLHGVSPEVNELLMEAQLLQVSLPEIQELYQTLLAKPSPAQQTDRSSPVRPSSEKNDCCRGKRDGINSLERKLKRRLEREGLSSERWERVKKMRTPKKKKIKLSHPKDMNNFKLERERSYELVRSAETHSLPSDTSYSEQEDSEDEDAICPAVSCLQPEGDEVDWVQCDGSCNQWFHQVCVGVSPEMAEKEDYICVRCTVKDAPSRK

inhibition at 0.1 µM [1] [%]	Structure (SMILES)	MDA-MB-231 cell migration (wound healing) [2]	MDA-MB-231 breast cancer cell invasion potential [3]
< 20	CCN(CC)CCCC(C)NCc1nccc2c(=O)[nH]cnc12 (centres unmarked) [Example 87, 8-(((5-(diethylamino)pentan-2-yl)amino)methyl)pyrido[3,4-d]pyrimidin-4(3H)-one]	inactive	–
> 50	CN1CCC(CNCc2nccc3c(=O)[nH]c(COc4ccc(Cc5ccccc5)cc4)nc23)C1 (centres unmarked) [Example 144, 2-((4-benzylphenoxy)methyl)-8-((((1-methylpyrrolidin-3-yl)methyl)amino)methyl)pyrido[3,4-d]pyrimidin-4(3H)-one]	suppressed MDA-MB-231 cell migration	–
> 50	O=c1[nH]c(COc2ccc(F)c(Cl)c2)nc2c(CNCC3CNCCO3)nccc12 (centres unmarked) [Example 167, 2-((3-chloro-4-fluorophenoxy)methyl)-8-(((morpholin-2-ylmethyl)amino)methyl)pyrido[3,4-d]pyrimidin-4(3H)-one]	–	decreased the MDA-MB-231 breast cancer cell invasion potential
20 to 50	O=C(CNCc1nccc2c(=O)[nH]c(COc3ccc(F)c(Cl)c3)nc12)N1CCC(N2CCOCC2)C1 (centres unmarked) [Example 235, 2-((3-chloro-4-fluorophenoxy)methyl)-8-(((2-(3-morpholinopyrrolidin-1-yl)-2-oxoethyl)amino)methyl)pyrido[3,4-d]pyrimidin-4(3H)-one]	–	–
> 50	CCN(CC)C1CCN(C(=O)CNCc2nccc3c(=O)[nH]c(COc4ccc(F)c(Cl)c4)nc23)C1 (centres unmarked) [Example 236, 2-((3-chloro-4-fluorophenoxy)methyl)-8-(((2-(3-(diethylamino)pyrrolidin-1-yl)-2-oxoethyl)amino)methyl)pyrido[3,4-d]pyrimidin-4(3H)-one]	–	–
> 50	CN(C)C1CCN(C(=O)CNCc2nccc3c(=O)[nH]c(COc4ccc(F)c(Cl)c4)nc23)C1 (centres unmarked) [Example 237, 2-((3-chloro-4-fluorophenoxy)methyl)-8-(((2-(3-(dimethylamino)pyrrolidin-1-yl)-2-oxoethyl)amino)methyl)pyrido[3,4-d]pyrimidin-4(3H)-one]	–	–
> 50	CNC1CCN(C(=O)CNCc2nccc3c(=O)[nH]c(COc4ccc(F)c(Cl)c4)nc23)C1 (centres unmarked) [Example 238, 2-((3-chloro-4-fluorophenoxy)methyl)-8-(((2-(3-(methylamino)pyrrolidin-1-yl)-2-oxoethyl)amino)methyl)pyrido[3,4-d]pyrimidin-4(3H)-one]	–	–
> 50	O=C(CNCc1nccc2c(=O)[nH]c(COc3ccc(F)c(Cl)c3)nc12)N[C@@H]1CCNC1 [Example 239, (R)-2-(((2-((3-chloro-4-fluorophenoxy)methyl)-4-oxo-3,4-dihydropyrido[3,4-d]pyrimidin-8-yl)methyl)amino)-N-(pyrrolidin-3-yl)acetamide]	–	–
< 20	O=C(CC1CCNCC1)NCc1nccc2c(=O)[nH]c(COc3ccc(F)c(Cl)c3)nc12 [Example 240, N-((2-((3-chloro-4-fluorophenoxy)methyl)-4-oxo-3,4-dihydropyrido[3,4-d]pyrimidin-8-yl)methyl)-2-(piperidin-4-yl)acetamide]	–	–
< 20	O=C(NCc1nccc2c(=O)[nH]c(COc3ccc(F)c(Cl)c3)nc12)C1CCCNC1 (centres unmarked) [Example 241, N-((2-((3-chloro-4-fluorophenoxy)methyl)-4-oxo-3,4-dihydropyrido[3,4-d]pyrimidin-8-yl)methyl)piperidine-3-carboxamide]	–	–
–	O=C(CCCCCCC(=O)Nc1ccccc1)NO [SAHA, reference compound]	–	decreased the MDA-MB-231 breast cancer cell invasion potential
